Where two headings read alike, the source gives them in different places.
What was measured:
c-Abl = molecular target: T1, c-Abl (Homo sapiens, UniProt P00519); experiment: Abl filter-binding kinase assay (Abtide, [γ-32P]ATP); format: biochemical; conditions: isolated Abl; calculated from ID50, ATP-competitive; E0 0.005, S0 0.012 µM
T1 construct: His tag; purchased Upstate (Lake Placid, NY, USA)
Procedure: (§1) Baculovirus-produced recombinant purified his-tagged active against human Src and Abl were purchased from Upstate (Lake Placid, NY, USA).
(§2) Src activity was measured in a filter-binding assay using the Src Assay Kit (Upstate, Lake Placid, NY, USA), according to the manufacturer's protocol, using the specific Src peptide substrate [[…]] in the presence of 0.125 pmol of Src and 0.160 pmol of [γ-^32P]ATP. Abl activity was measured in a filter-binding assay using an Abl specific peptide substrate (Abtide, Upstate). Reaction conditions were (in a final volume of 10 µl): 25 mM Tris-HCl pH 7.5, 1 mM DTT, 0.012 µM [γ-^32P]ATP, 0.022 µM c-Abl. Reactions were incubated 10 min at 30°C.The samples (9 µl) were spotted on paper cellulose filters which were washed according to the manufacturer's protocol. Filter-bound radioactivity was measured by liquid scintillation with a Microbeta-Trilux apparatus (PerkinElmer, Waltham, MA, USA).
(§3) The ID50 were converted to Ki according to a competitive mechanism with respect to the substrate ATP. […] Since (i) the ATP concentration was limiting, i.e., [ATP], Km(ATP), and (ii) the enzyme concentration was not negligible with respect to the ATP concentration, the classical Cheng-Prusoff relationship was not applicable. Consequently, Ki values were calculated according to [drawing 3] (2) where S0 is the concentration of the competing substrate (ATP) and E0 is the concentration of the enzyme. Each experiment was done in triplicate and mean values were used for the interpolation. Curve fitting was performed with the program GraphPad Prism.

A2C12 [1] = experiment: MTS cell viability assay; format: cell-based, mouse
Procedure: (§4) Three human and eleven murine cancer cell lines were used. The human NSCLC cell line A549 (ACC 107) and the human colorectal carcinoma cell line CaCo2 (ACC 169) were obtained from Deutsche Sammlung von Mikroorganismen und Zellkulturen (DSMZ, Braunschweig, Germany). The human hepatocellular carcinoma cell line HepG2 (HB-8065) was obtained from American Type Culture Collection (Manassas, VA, USA). The 11 murine NSCLC cell lines were established as described recently. Cells were grown in monolayer cultures in DMEM containing 10% foetal calf serum, 4 mmol/l L-glutamine and 2% Penicillin/Streptomycin at 37°C in a humidified atmosphere of 95% air and 5% CO2.
(§5) Cell culture viability was monitored by CellTiter96® AQueous One Solution Cell Proliferation Assay (Promega GmbH, Mannheim, Germany). The cells were seeded in triplicates in 96-well microtitre plates and treated with the dual kinase inhibitors or vehicle (0.2% DMSO). After 24 h or 96 h of treatment the MTS tetrazolium reagent was added to the cells and incubated for 1 h. Absorbance at 490 nm was assayed with a Victor3 Wallac 1420 Multilabel counter (PerkinElmer, Waltham, MA, USA).

BetaD5 [2] = experiment: MTS cell viability assay; format: cell-based, mouse
Procedure: as §4, §5

GammaA3 [3] = experiment: MTS cell viability assay; format: cell-based, mouse
Procedure: as §4, §5

GammaD12 [4] = experiment: MTS cell viability assay; format: cell-based, mouse; conditions: MTS
Procedure: as §4, §5

A549 [5] = experiment: MTS cell viability assay; format: cell-based, human
Procedure: as §4, §5

CaCo2 [6] = experiment: MTS cell viability assay; format: cell-based, human
Procedure: as §4, §5

HepG2 [7] = experiment: MTS cell viability assay; format: cell-based, human
Procedure: as §4, §5

A2C12 [8] = experiment: Cell cycle analysis by flow cytometry; format: cell-based, mouse; conditions: IC50 concentration, 96 h
Procedure: (§6) CycleTEST™ PLUS DNA Reagent Kit (Becton Dickinson GmbH, Heidelberg, Germany) for cell cycle analysis was used, according to the instructions of the manufacturer. Briefly, the cells were harvested with trypsin, washed with PBS, and resuspended in CycleTEST Buffer. The cells were centrifuged and resuspended in solution A. After incubation for 10 min at room temperature, solution B was added and incubated. After adding solution C, the samples were incubated at 4°C protected from light. The samples were stored on ice and protected from light until analysis by FACScan flow cytometer (Becton Dickinson GmbH, Heidelberg, Germany).

GammaA3 [9] = experiment: Cell cycle analysis by flow cytometry; format: cell-based, mouse; conditions: IC50 concentration, 96 h
Procedure: as §6

GammaD12 [10] = experiment: Cell cycle analysis by flow cytometry; format: cell-based, mouse; conditions: IC50 concentration, 96 h
Procedure: as §6

A549 [11] = experiment: Cell cycle analysis by flow cytometry; format: cell-based, human; conditions: IC50 concentration, 96 h
Procedure: as §6

CaCo2 [12] = experiment: Cell cycle analysis by flow cytometry; format: cell-based, human; conditions: IC50 concentration, 96 h
Procedure: as §6

c-Src = molecular target: T2, c-Src (Homo sapiens, UniProt P12931); experiment: Src filter-binding kinase assay (Src Assay Kit); format: biochemical; conditions: isolated Src; calculated from ID50, ATP-competitive; E0 0.005, S0 0.012 µM
T2 construct: His tag; purchased Upstate (Lake Placid, NY, USA)
T2 sequence (P12931 whole entry): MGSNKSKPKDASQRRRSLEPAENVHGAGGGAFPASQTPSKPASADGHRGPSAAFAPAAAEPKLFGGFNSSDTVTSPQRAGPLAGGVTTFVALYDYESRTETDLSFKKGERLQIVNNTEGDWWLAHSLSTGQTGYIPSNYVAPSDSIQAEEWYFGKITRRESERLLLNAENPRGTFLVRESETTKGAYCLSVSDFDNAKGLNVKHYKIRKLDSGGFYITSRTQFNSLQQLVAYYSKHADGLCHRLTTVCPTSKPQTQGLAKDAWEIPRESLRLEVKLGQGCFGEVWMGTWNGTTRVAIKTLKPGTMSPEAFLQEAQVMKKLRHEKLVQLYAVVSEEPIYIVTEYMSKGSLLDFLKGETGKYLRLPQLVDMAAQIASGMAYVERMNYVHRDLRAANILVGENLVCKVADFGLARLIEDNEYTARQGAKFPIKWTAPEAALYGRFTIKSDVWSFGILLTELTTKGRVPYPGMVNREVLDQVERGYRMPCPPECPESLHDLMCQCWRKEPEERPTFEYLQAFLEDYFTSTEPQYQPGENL
Procedure: as §1, §2, §3

BetaD5 [13] = experiment: Cell cycle analysis by flow cytometry; format: cell-based, mouse; conditions: IC50 concentration, 96 h
Procedure: as §6

HepG2 [14] = experiment: Cell cycle analysis by flow cytometry; format: cell-based, human; conditions: IC50 concentration, 96 h
Procedure: as §6

[15] = 24 h, read-out: Calculated IC50 after single treatment for 24 h
[16] = 96 h, read-out: Calculated IC50 after daily treatment for 96 h
[17] = Mus musculus, 24 h, read-out: Calculated IC50 after single treatment for 24 h
[18] = Mus musculus, 96 h, read-out: Calculated IC50 after daily treatment for 96 h
[19] = Homo sapiens, A549, 24 h, 24 h, read-out: Calculated IC50 after single treatment for 24 h
[20] = Homo sapiens, A549, 96 h, 96 h, read-out: Calculated IC50 after daily treatment for 96 h
[21] = Homo sapiens, Caco-2, 24 h, read-out: Calculated IC50 after single treatment for 24 h
[22] = Homo sapiens, Caco-2, 96 h, read-out: Calculated IC50 after daily treatment for 96 h
[23] = Homo sapiens, 24 h, read-out: Calculated IC50 after single treatment for 24 h
[24] = Homo sapiens, 96 h, read-out: Calculated IC50 after daily treatment for 96 h

T1 sequence (P00519 whole entry): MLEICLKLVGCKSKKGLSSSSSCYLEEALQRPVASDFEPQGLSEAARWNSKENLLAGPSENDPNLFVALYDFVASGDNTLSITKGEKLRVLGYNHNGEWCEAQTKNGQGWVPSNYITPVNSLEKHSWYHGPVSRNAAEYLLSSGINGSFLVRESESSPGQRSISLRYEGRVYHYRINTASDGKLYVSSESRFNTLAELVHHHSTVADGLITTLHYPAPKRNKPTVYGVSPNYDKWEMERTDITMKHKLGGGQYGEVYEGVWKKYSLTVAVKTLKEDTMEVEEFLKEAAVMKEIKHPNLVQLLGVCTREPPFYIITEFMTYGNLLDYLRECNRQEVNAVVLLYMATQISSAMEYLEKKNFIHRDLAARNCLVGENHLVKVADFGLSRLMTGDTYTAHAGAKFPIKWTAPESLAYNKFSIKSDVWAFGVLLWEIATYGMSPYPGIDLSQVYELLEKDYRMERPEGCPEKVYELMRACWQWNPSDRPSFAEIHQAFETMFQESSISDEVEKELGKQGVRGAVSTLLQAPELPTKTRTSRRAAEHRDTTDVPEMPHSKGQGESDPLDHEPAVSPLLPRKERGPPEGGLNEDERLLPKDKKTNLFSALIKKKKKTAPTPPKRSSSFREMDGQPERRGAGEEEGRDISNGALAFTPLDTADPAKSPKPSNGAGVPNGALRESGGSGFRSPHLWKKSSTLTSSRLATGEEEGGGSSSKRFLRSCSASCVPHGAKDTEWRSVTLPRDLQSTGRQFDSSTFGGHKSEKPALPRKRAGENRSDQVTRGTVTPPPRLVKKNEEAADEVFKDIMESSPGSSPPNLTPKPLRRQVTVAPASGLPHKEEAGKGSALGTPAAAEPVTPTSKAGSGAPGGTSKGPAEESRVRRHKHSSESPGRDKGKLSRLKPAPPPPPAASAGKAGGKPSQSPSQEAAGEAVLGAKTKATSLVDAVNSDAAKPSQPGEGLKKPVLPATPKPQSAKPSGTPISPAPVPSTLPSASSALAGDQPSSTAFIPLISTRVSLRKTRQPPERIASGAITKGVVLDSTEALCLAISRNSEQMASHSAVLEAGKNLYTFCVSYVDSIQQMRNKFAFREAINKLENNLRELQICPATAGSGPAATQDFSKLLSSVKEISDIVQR

CSc1nc(NCCc2ccccc2)c2cnn(C=Cc3ccccc3)c2n1 [Si40]
Ki (c-Abl): 0.45 µM
IC50 (A2C12 [1]; [15]): > 100 µM
IC50 (A2C12 [1]; [16]): 7 ± 0.5 µM
IC50 (BetaD5 [2]; [15]): 43.6 ± 3.6 µM
IC50 (BetaD5 [2]; [16]): 12.9 ± 2.9 µM
IC50 (GammaA3 [3]; [15]): > 100 µM
IC50 (GammaA3 [3]; [16]): > 20 µM
IC50 (GammaD12 [4]; [15]): 26 ± 3 µM
IC50 (GammaD12 [4]; [16]): 12.7 ± 0.4 µM
IC50 (A549 [5]; [15]): > 100 µM
IC50 (A549 [5]; [16]): 16.2 ± 2.1 µM
IC50 (CaCo2 [6]; [15]): > 100 µM
IC50 (CaCo2 [6]; [16]): 0.4 ± 0.1 µM
IC50 (HepG2 [7]; [15]): > 100 µM
Cells in G1 phase (A2C12 [8]): 75.7%
Cells in G2 phase (A2C12 [8]): 9.8%
Cells in S phase (A2C12 [8]): 14.6%
Cells in G1 phase (GammaA3 [9]): 53.4%
Cells in G2 phase (GammaA3 [9]): 15.4%
Cells in S phase (GammaA3 [9]): 31.3%
Cells in G1 phase (GammaD12 [10]): 28.4%
Cells in G2 phase (GammaD12 [10]): 2.7%
Cells in S phase (GammaD12 [10]): 68.9%
Cells in G1 phase (A549 [11]): 81%
Cells in G2 phase (A549 [11]): 3.8%
Cells in S phase (A549 [11]): 15.2%
Cells in G1 phase (CaCo2 [12]): 52.5%
Cells in G2 phase (CaCo2 [12]): 10.3%
Cells in S phase (CaCo2 [12]): 37.2%

BrC(Cn1ncc2c(N3CCOCC3)ncnc21)c1ccccc1 (stereo not drawn) [Si51]
Ki (c-Abl): 0.22 µM
IC50 (A2C12 [1]; [15]): > 100 µM
IC50 (A2C12 [1]; [16]): > 20 µM
IC50 (BetaD5 [2]; [15]): > 100 µM
IC50 (BetaD5 [2]; [16]): > 20 µM
IC50 (GammaA3 [3]; [15]): > 100 µM
IC50 (GammaA3 [3]; [16]): > 20 µM
IC50 (GammaD12 [4]; [15]): > 100 µM
IC50 (GammaD12 [4]; [16]): > 20 µM
IC50 (A549 [5]; [15]): > 100 µM
IC50 (A549 [5]; [16]): > 20 µM
IC50 (CaCo2 [6]; [15]): > 100 µM
IC50 (CaCo2 [6]; [16]): > 20 µM
IC50 (HepG2 [7]; [15]): > 100 µM

Cc1nc(Nc2cccc(F)c2)c2cnn(CC(Cl)c3ccccc3)c2n1 (stereo not drawn) [Si166]
Ki (c-Abl): 0.151 µM
Ki (c-Src): 0.338 µM
IC50 (A2C12 [1]; [17]): 16.6 ± 1.2 µM
IC50 (A2C12 [1]; [18]): 11.5 ± 0.5 µM
IC50 (BetaD5 [2]; [17]): 14 ± 2.1 µM
IC50 (BetaD5 [2]; [18]): 10.6 ± 0.7 µM
IC50 (GammaA3 [3]; [17]): 17 ± 2.3 µM
IC50 (GammaA3 [3]; [18]): 19 ± 1.3 µM
IC50 (GammaD12 [4]; [17]): 18.1 ± 1.4 µM
IC50 (GammaD12 [4]; [18]): 15.9 ± 1.4 µM
IC50 (A549 [5]; [19]): 20.2 ± 2.5 µM
IC50 (A549 [5]; [20]): 8.3 ± 0.3 µM
IC50 (CaCo2 [6]; [21]): 37.7 ± 2.4 µM
IC50 (CaCo2 [6]; [22]): 6 ± 0.7 µM
IC50 (HepG2 [7]; [23]): 37.7 ± 2.4 µM
IC50 (HepG2 [7]; [24]): 10.8 ± 0.9 µM
Cells in G1 phase (A2C12 [8]): 56.1%
Cells in G2 phase (A2C12 [8]): 13.6%
Cells in S phase (A2C12 [8]): 30.4%
Cells in G1 phase (BetaD5 [13]): 68.3%
Cells in G2 phase (BetaD5 [13]): 20.8%
Cells in S phase (BetaD5 [13]): 10.9%
Cells in G1 phase (GammaA3 [9]): 74.4%
Cells in G2 phase (GammaA3 [9]): 14.1%
Cells in S phase (GammaA3 [9]): 11.5%
Cells in G1 phase (GammaD12 [10]): 39.5%
Cells in G2 phase (GammaD12 [10]): 10.2%
Cells in S phase (GammaD12 [10]): 50.3%
Cells in G1 phase (A549 [11]): 63.2%
Cells in G2 phase (A549 [11]): 6.6%
Cells in S phase (A549 [11]): 30.2%
Cells in G1 phase (CaCo2 [12]): 56.7%
Cells in G2 phase (CaCo2 [12]): 17.8%
Cells in S phase (CaCo2 [12]): 25.5%
Cells in G1 phase (HepG2 [14]): 54.6%
Cells in G2 phase (HepG2 [14]): 9.6%
Cells in S phase (HepG2 [14]): 35.8%

Cc1nc(Nc2cccc(Cl)c2)c2cnn(CC(Cl)c3ccccc3)c2n1 (stereo not drawn) [Si167]
Ki (c-Abl): 0.5 µM
Ki (c-Src): 0.362 µM
IC50 (A2C12 [1]; [17]): 16.4 ± 0.8 µM
IC50 (A2C12 [1]; [18]): 10.6 ± 0.9 µM
IC50 (BetaD5 [2]; [17]): 12.4 ± 1 µM
IC50 (BetaD5 [2]; [18]): 9.3 ± 0.6 µM
IC50 (GammaA3 [3]; [17]): 20.5 ± 1.2 µM
IC50 (GammaA3 [3]; [18]): 16.8 ± 3.2 µM
IC50 (GammaD12 [4]; [17]): 19.5 ± 0.8 µM
IC50 (GammaD12 [4]; [18]): 9 ± 0.9 µM
IC50 (A549 [5]; [19]): 19.8 ± 2.8 µM
IC50 (A549 [5]; [20]): 5.7 ± 0.3 µM
IC50 (CaCo2 [6]; [21]): 32.2 ± 1.7 µM
IC50 (CaCo2 [6]; [22]): 5.7 ± 0.6 µM
IC50 (HepG2 [7]; [23]): 32.2 ± 1.7 µM
IC50 (HepG2 [7]; [24]): 11.4 ± 1.7 µM
Cells in G1 phase (A2C12 [8]): 55.7%
Cells in G2 phase (A2C12 [8]): 13.1%
Cells in S phase (A2C12 [8]): 31.2%
Cells in G1 phase (BetaD5 [13]): 74.7%
Cells in G2 phase (BetaD5 [13]): 18.7%
Cells in S phase (BetaD5 [13]): 6.6%
Cells in G1 phase (GammaA3 [9]): 73.2%
Cells in G2 phase (GammaA3 [9]): 15.1%
Cells in S phase (GammaA3 [9]): 11.7%
Cells in G1 phase (GammaD12 [10]): 42%
Cells in G2 phase (GammaD12 [10]): 9.4%
Cells in S phase (GammaD12 [10]): 48.6%
Cells in G1 phase (A549 [11]): 61.5%
Cells in G2 phase (A549 [11]): 6.7%
Cells in S phase (A549 [11]): 31.8%
Cells in G1 phase (CaCo2 [12]): 52.7%
Cells in G2 phase (CaCo2 [12]): 18%
Cells in S phase (CaCo2 [12]): 29.3%
Cells in G1 phase (HepG2 [14]): 57.8%
Cells in G2 phase (HepG2 [14]): 10.6%
Cells in S phase (HepG2 [14]): 31.6%
